Results on 22 compounds are retold here after ChEMBL document CHEMBL1921797, “Synthesis and biological evaluation of arylated novobiocin analogs as Hsp90 inhibitors” (Bioorg Med Chem Lett, 2011).

Calls of active or inactive are those of the source. No cut-off for these calls is given here.

Assay [1] has as its system MCF7. Kind of assay: Antiproliferative activity against human MCF7 cells. It is filed as functional, cell-based.
Another assay deals with SK-BR-3. Kind of assay: Antiproliferative activity against human SKBR3 cells. It is filed as functional, cell-based.
Assay [2] addresses Heat shock protein HSP 90-beta (Homo sapiens) (UniProt P08238). Kind of assay: Inhibition of human C-terminal domain of Hsp90 in MCF7 cells assessed as Akt degradation at 0.1 to 100 uM by Western blotting. The format is cell-based. For orientation: A western blot detects proteins with antibodies after separation by electrophoresis.
The target is the same in assay [3]. The assay can be described thus: Inhibition of human C-terminal domain of Hsp90 in MCF7 cells assessed as Her2 degradation at 0.1 to 100 uM by Western blotting. The format is cell-based.
Assay [4] shares this target. Kind of assay: Induction of human Hsp90 activity in MCF7 cells at 0.1 to 100 uM by Western blotting. It is filed as cell-based.
Assay [5] has the same target. Kind of assay: Inhibition of human C-terminal domain of Hsp90 in MCF7 cells assessed as Raf degradation at 0.1 to 100 uM by Western blotting. It is filed as cell-based.
Assay [6] has as its system MCF7. The assay can be described thus: Ratio of IC50 for human SKBR3 cells to IC50 for human MCF7 cells. It is filed as functional.

Chain of Heat shock protein HSP 90-beta (Homo sapiens) (P08238 whole entry, the tested form may be a part): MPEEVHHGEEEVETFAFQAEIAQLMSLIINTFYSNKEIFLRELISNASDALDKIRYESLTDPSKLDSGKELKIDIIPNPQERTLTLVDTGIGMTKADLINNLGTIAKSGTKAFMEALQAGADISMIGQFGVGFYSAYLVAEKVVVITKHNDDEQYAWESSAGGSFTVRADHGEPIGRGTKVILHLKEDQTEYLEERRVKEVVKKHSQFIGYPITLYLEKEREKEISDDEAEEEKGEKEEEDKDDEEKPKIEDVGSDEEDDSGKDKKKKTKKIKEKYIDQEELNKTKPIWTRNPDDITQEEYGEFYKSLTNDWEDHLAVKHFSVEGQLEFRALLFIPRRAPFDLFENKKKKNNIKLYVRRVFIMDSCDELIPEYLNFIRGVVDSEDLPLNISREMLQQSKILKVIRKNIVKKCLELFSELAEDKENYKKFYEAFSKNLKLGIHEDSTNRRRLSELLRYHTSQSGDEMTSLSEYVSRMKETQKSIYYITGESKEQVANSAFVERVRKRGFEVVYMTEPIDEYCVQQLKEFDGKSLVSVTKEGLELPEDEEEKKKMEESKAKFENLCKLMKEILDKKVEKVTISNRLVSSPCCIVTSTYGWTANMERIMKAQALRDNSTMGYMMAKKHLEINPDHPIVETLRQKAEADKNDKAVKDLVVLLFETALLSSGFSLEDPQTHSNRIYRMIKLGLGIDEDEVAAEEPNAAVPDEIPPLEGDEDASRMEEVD

`COc1ccc(Nc2ccc3cc(NC(=O)c4ccc(OC)c(-c5cccc(OC)c5)c4)c(=O)oc3c2C)cc1`: the IC50 in the assay on MCF7 [1] and with SK-BR-3 was above 100 µM in each case.

As for `COc1ccc(Oc2ccc3cc(NC(=O)c4ccc(OC(C)=O)c(CC=C(C)C)c4)c(=O)oc3c2C)cc1`, the IC50 (commonly the concentration that inhibits the measured activity by half) in the assay with MCF7 [1] stood at 18.2 µM; in the assay with SK-BR-3 it was 19.5 µM.

Take `COc1ccc(Nc2ccc3cc(NC(=O)c4ccc(OC(C)=O)c(CC=C(C)C)c4)c(=O)oc3c2C)cc1`: the IC50 with MCF7 [1] and in the assay on SK-BR-3 was above 100 µM throughout.

`CC(C)=CCc1cc(C(=O)Nc2cc3ccc(Oc4ccc(C(C)(C)C)cc4)c(C)c3oc2=O)ccc1O`: the figures for the IC50 with MCF7 [1] and with SK-BR-3 were 20.6 µM and 68.3 µM, respectively.

As to `COc1cccc(Oc2ccc3cc(NC(=O)c4ccc(OC(C)=O)c(CC=C(C)C)c4)c(=O)oc3c2C)c1`, the IC50 was determined as 15.7 µM with MCF7 [1] and 13.7 µM with SK-BR-3.

Consider `CC(=O)Oc1ccc(C(=O)Nc2cc3ccc(Oc4ccc(C(C)(C)C)cc4)c(C)c3oc2=O)cc1CC=C(C)C`, for which the 50% inhibitory concentration (IC50) in the assay on MCF7 [1] is 75 µM; with SK-BR-3 it was 72.4 µM.

Regarding `COc1cccc(Cc2ccc3cc(NC(=O)c4ccc(O)c(CC=C(C)C)c4)c(=O)oc3c2C)c1`, the IC50 stood at 19.7 µM with MCF7 [1] and 14.8 µM in the assay with SK-BR-3.

Turning to `COc1ccc(Oc2ccc3cc(NC(=O)c4ccc(O)c(CC=C(C)C)c4)c(=O)oc3c2C)cc1`, the inhibition entry in assay [2], in assay [3] and in assay [5] was “Active” throughout. For the same compound, the IC50 in the assay with MCF7 [1] is 6.51 µM; in the assay on SK-BR-3 it was 42.7 µM. Further, the outcome in assay [4] was inactive.

`COc1ccc(Nc2ccc3cc(NC(=O)c4ccc(O)c(CC=C(C)C)c4)c(=O)oc3c2C)cc1`: the IC50 with MCF7 [1] and in the assay on SK-BR-3 was above 100 µM in each case.

For `COc1ccc(Oc2ccc3cc(NC(=O)c4ccc(OC)c(-c5cccc(OC)c5)c4)c(=O)oc3c2C)cc1`, the IC50 in the assay on MCF7 [1] and in the assay with SK-BR-3 was above 100 µM in each case.

Regarding `CC(C)=CCc1cc(C(=O)Nc2cc3ccc(Cc4ccc(O)cc4)c(C)c3oc2=O)ccc1O`, the figures for the IC50 in the assay on MCF7 [1] and with SK-BR-3 were 32.1 µM and 21.5 µM, respectively.

`COc1ccc(Cc2ccc3cc(NC(=O)c4ccc(O)c(CC=C(C)C)c4)c(=O)oc3c2C)cc1`: the IC50 in the assay on MCF7 [1] was determined as 13.2 µM; in the assay on SK-BR-3, 11.1 µM.

As for `COCOc1ccc(Cc2ccc3cc(NC(=O)c4ccc(OC(C)=O)c(CC=C(C)C)c4)c(=O)oc3c2C)cc1`, the IC50 was 22.7 µM with MCF7 [1] and 13.5 µM in the assay with SK-BR-3.

As to `COc1cccc(Oc2ccc3cc(NC(=O)c4ccc(OC)c(-c5cccc(OC)c5)c4)c(=O)oc3c2C)c1`, the IC50 with MCF7 [1] and in the assay on SK-BR-3 was above 100 µM each time.

Regarding `COCOc1ccc(Cc2ccc3cc(NC(=O)c4ccc(OC(C)=O)c(CC=C(C)C)c4)c(=O)oc3c2C)cc1OC`, the IC50 with MCF7 [1] was determined as 14.9 µM; in the assay on SK-BR-3, 14.2 µM.

`COc1cccc(Oc2ccc3cc(NC(=O)c4ccc(O)c(CC=C(C)C)c4)c(=O)oc3c2C)c1`: the IC50 in the assay with MCF7 [1] stood at 62.8 µM; in the assay with SK-BR-3, 33.1 µM.

Turning to `COc1cccc(-c2cc(C(=O)Nc3cc4ccc(Cc5ccccc5)c(C)c4oc3=O)ccc2OC)c1`, the IC50 stood at 7.11 µM in the assay with MCF7 [1] and 4.09 µM in the assay with SK-BR-3.

As for `COc1cccc(-c2cc(C(=O)Nc3cc4ccc(Oc5ccc(C(C)(C)C)cc5)c(C)c4oc3=O)ccc2OC)c1`, the IC50 in the assay with MCF7 [1] and in the assay on SK-BR-3 was above 100 µM throughout.

Regarding `COc1cc(Cc2ccc3cc(NC(=O)c4ccc(O)c(CC=C(C)C)c4)c(=O)oc3c2C)ccc1O`, the IC50 was 14.6 µM with MCF7 [1] and 10.7 µM in the assay with SK-BR-3.

As to `COc1ccc(Cc2ccc3cc(NC(=O)c4ccc(OC)c(-c5cccc(OC)c5)c4)c(=O)oc3c2C)cc1`, the IC50 in the assay on MCF7 [1] and with SK-BR-3 was above 100 µM in each case.

On to `COc1ccc(Cc2ccc3cc(NC(=O)c4ccc(O)c(CC=C(C)C)c4)c(=O)oc3c2C)cc1OC`, for which the IC50 in the assay with MCF7 [1] was 13.9 µM; in the assay with SK-BR-3, above 100 µM. Besides, in the assay with MCF7 [6], the “Ratio IC50” value is on record as 10.

On to `COc1ccc(Cc2ccc3cc(NC(=O)c4ccc(OC(C)=O)c(CC=C(C)C)c4)c(=O)oc3c2C)cc1`, for which the inhibition entry in assay [2], in assay [3] and in assay [5] was “Active” throughout. In addition, the IC50 in the assay on MCF7 [1] came out at 11.5 µM; in the assay on SK-BR-3, 23.5 µM. The outcome in assay [4] was inactive.
